Test results as given in article PMC5733030, “Characterizing Isozymes of Chlorite Dismutase for Water Treatment” (Frontiers in Microbiology, 2017).

Tested on: T1, MbCld
T1 construct: gene cld; native, soluble protein fraction of chlorate-grown cells; not purified
Assay: chloride ion selective electrode, initial rates, Michaelis-Menten fit
Format: biochemical, Magnetospirillum bellicus
Conditions: 10 mM phosphate buffer pH 7.0, 21–23°C; soluble protein fraction
Description: chloride ion selective electrode, initial rates, Michaelis-Menten fit on MbCld

[O-][Cl+]O [chlorite]
Km: 360 ± 210 µM
